Measured values taken from patent US7048907B2, “Synthesis, compositions and methods for the measurement of the concentration of stable-isotope labeled compounds in life forms and life form excretory products” (BioPhysics Assay Laboratory, Inc., priority 2001, dated 2006).

Tests used:
[1] = Stability of chelates to autoclaving (CM-Sephadex assay); format: physicochemical; conditions: for % of total / dpm: autoclaved 30 minutes at 121° C.
Description: A sample comprising 5 ml of Sm-DTPA, La-DTPA, and Eu-DTPA prepared in Examples 9, 10, and 11 were placed in 10 ml glass bottles, each capped with a grey butyl rubber cap, and the caps were crimped. Samples were autoclaved for 30 minutes at 121° C.
Five ml of each of Sm-DOTA, La-DOTA, and Eu-DOTA prepared in Examples 13, 14, and 15 were placed in 10 ml glass bottles capped with a grey butyl rubber cap and crimped. Samples were autoclaved for 30 minutes at 121° C. Samples were allowed to cool to room temperature and were assayed as described in Examples 25.

[2] = Assay of chelate on carboxymethyl (CM) Sephadex column (chelate formation, charge); format: physicochemical; conditions: for time within which the chelate forms: room temperature, Tris pH 7.5
Description: Preparation of carboxymethyl sephadex column. To two 10 ml plastic pipets cut off at the 3 ml mark and plugged with glass wool at the bottom add enough slurry to form a 2 ml volume of the CM sephadex. Wash the packed resin with 6 ml of 1 M Tris buffer pH 7.5, and 6 ml of 0.01M Tris buffer pH 7.5. […] Collect the eluants of fractions as follows. Fraction 1.3 ml of 0.01 M Tris buffer pH 7.5 and allow to drain into column. Fraction 2.1 ml of sample (gadolinium-DTPA or gadolinium chloride) and allow to drain into column. Apply 3 ml of 0.01 M Tris buffer pH 7.5 and allow to drain into column. Fraction 3.3 ml of 0.01M Tris buffer pH 7.5 and allow to drain into column. Dry all fractions at 70° C. for 76 hours, dissolve in 1 ml of 1 mM HCl and assay by atomic absorption.
(§1) Preparation of carboxymethyl Sephadex column. To two 10 ml plastic pipets which had been cut off at the 3 ml mark and plugged with glass wool at the bottom, enough slurry was added to form a 2 ml volume of the CM Sephadex. The packed resin was wash with 6 ml of 1 M Tris buffer pH 7.5, and 6 ml of 0.01M Tris buffer pH 7.5. […] Fractions were applied as follows. Fraction 1. Three ml of 0.01 M Tris buffer pH 7.5 and allow to drain into column. Fraction 2. One ml of sample (samarium-DTPA or samarium chloride) and allow to drain into column. Apply 3 ml of 0.01 M Tris buffer pH 7.5 and allow to drain into column. Fraction 3. Three ml of 0.01M Tris buffer pH 7.5 and allow to drain into column. Collect the eluant of fractions 1 through 3. Fraction 4. Column and contents.
as §1, with “were” for “had been”, “washed” for “wash”, “(lanthanum-DTPA” for “(samarium-DTPA”, “lanthanum” for “samarium”
as §1, with “were” for “had been”, “washed” for “wash”, “(Europium-DTPA” for “(samarium-DTPA”, “Europium” for “samarium”
Preparation of carboxymethyl sephadex column. To a 10 ml plastic pipet cut off at the 3 ml mark and plugged with glass wool at the bottom, add enough slurry to form a 2 ml volume of the CM sephadex. Wash the packed resin with 6 ml of 1 M Tris buffer pH 7.5, and 6 ml of 0.01M Tris buffer pH 7.5. […] Apply fractions as follows. Fraction 1. One ml of sample A and allow to drain into column.

[3] = Kinetics of blood depletion and urine accumulation of chelates in the rat; format: in vivo; conditions: average of three rats
Description: One half ml of Sm-DTPA (0.01 mg/kg), dissolved in saline (pH 7), is injected into the tail vein of three rats. Samples of blood are obtained at 10, 30 and 60 minutes following injection and analyzed for Sm-DTPA by neutron activation. The percent of starting amount of the Sm-DTPA at each time interval is presented in Table 18 (last column on right). Similarly, the accumulation of Sm-DTPA in the rat urine at two times is shown in the last column of Table 18.
One half ml of Technetium-99m-DTPA (1 millicurie), Gd-DTPA (0.05 mg/kg), and Sm-DTPA (0.01 mg/kg) are each dissolved in saline (pH 7), and are injected simultaneously into the tail vein of three rats. Samples of blood are obtained at 10, 30 and 60 minutes following injection and analyzed for ^99mTc-DTPA (gamma counting), Gd-DTPA (T1 relaxation) and Sm-DTPA (neutron activation).
One half ml of Sm-DTPA, La-DTPA and Eu-DTPA (each 0.01 mg/kg), dissolved in saline (pH 7) are injected simultaneously into the tail vein of three rats. Samples of blood are obtained at 10, 30 and 60 minutes following injection and analyzed for each element by neutron activation.
Samples of Sm-DTPA, La-DTPA and Eu-DTPA (0.5 ml; 0.01 mg/kg), each dissolved in saline (pH 7), are injected sequentially at 0, 20, and 40 minutes into the tail vein of three rats. Samples of blood are obtained at 10, 30 and 60 min following each injection and analyzed for each element by neutron activation.

[4] = Fraction 1: sample diluted 1:10 then 2-3 ml 0.01M Tris pH 7.5 (eluate)
[5] = Fraction 2: 3 ml 0.01M Tris pH 7.5
[6] = Fraction 3: column and contents (retained)
[7] = Fraction 1: 3 ml 0.01M Tris pH 7.5 before sample
[8] = Fraction 2: 1 ml sample then 3 ml 0.01M Tris pH 7.5 (eluate)
[9] = Fraction 3: further 3 ml 0.01M Tris pH 7.5
[10] = Fraction 4: column and contents (retained)
[11] = blood 10 min, Sm-DTPA, La-DTPA and Eu-DTPA (each 0.01 mg/kg i.v.) simultaneously administered (Example 31)
[12] = blood 10 min after each injection, Sm-DTPA, La-DTPA, Eu-DTPA (0.01 mg/kg i.v.) sequentially administered at 0, 20, 40 minutes (Example 32)
[13] = blood 10 min after i.v. injection, ^99mTc-DTPA, Gd-DTPA and Sm-DTPA simultaneously administered (Example 30)
[14] = blood 30 min, Sm-DTPA, La-DTPA and Eu-DTPA simultaneously administered (Example 31)
[15] = blood 30 min, ^99mTc-DTPA, Gd-DTPA and Sm-DTPA simultaneously administered (Example 30)
[16] = blood 30 min after each injection, sequentially administered (Example 32)
[17] = blood 60 min, Sm-DTPA, La-DTPA and Eu-DTPA simultaneously administered (Example 31)
[18] = blood 60 min, ^99mTc-DTPA, Gd-DTPA and Sm-DTPA simultaneously administered (Example 30)
[19] = blood 60 min after each injection, sequentially administered (Example 32)
[20] = urine 30 min, Sm-DTPA, La-DTPA and Eu-DTPA simultaneously administered (Example 31)
[21] = urine 30 min, ^99mTc-DTPA, Gd-DTPA and Sm-DTPA simultaneously administered (Example 30)
[22] = urine 30 min, sequentially administered (Example 32)
[23] = urine 180 min, Sm-DTPA, La-DTPA and Eu-DTPA simultaneously administered (Example 31)
[24] = urine 180 min, ^99mTc-DTPA, Gd-DTPA and Sm-DTPA simultaneously administered (Example 30)
[25] = urine 180 min, sequentially administered (Example 32)

| Compound | % eluted from CM-Sephadex column following autoclaving [1] [%] | % of total [1, 4] | dpm [1, 4] [dpm] | % of total [1, 5] | dpm [1, 5] [dpm] | % of total [1, 6] | dpm [1, 6] [dpm] | % eluted from the CM-Sephadex column [2] [%] | % of total [2, 7] | dpm [2, 7] [dpm] | % of total [2, 8] | dpm [2, 8] [dpm] | % of total [2, 9] | dpm [2, 9] [dpm] | % of total [2, 10] | dpm [2, 10] [dpm] | time within which the chelate forms [2] [min] | Percent of initial injection, blood [3, 11] | Percent of initial injection, blood [3, 12] | Percent of initial injection, blood [3, 13] | further results |
| --- | --- | --- | --- | --- | --- | --- | --- | --- | --- | --- | --- | --- | --- | --- | --- | --- | --- | --- | --- | --- | --- |
| O=C([O-])CN(CCN(CC(=O)[O-])CC(=O)[O-])CCN(CC(=O)[O-])CC(=O)[O-].[Sm+3] [Sm-DTPA] | 100 | 98 % of total | 1128928 | 2 % of total | 26387 | 0 % of total | 1867 | 98 | 0 % of total | 0 | 97 % of total | 148208 | 1 % of total | 19089 | 2 % of total | 24257 | ≤ 5 | 83% of initial injection | 81% of initial injection | 88% of initial injection | Percent of initial injection, blood ([3]; blood 10 min, Sm-DTPA 0.01 mg/kg i.v. administered alone (Example 29)): 86% of initial injection; Percent of initial injection, blood ([3]; blood 30 min, Sm-DTPA 0.01 mg/kg i.v. administered alone (Example 29)): 61% of initial injection; Percent of initial injection, blood [3, 14]: 61% of initial injection; Percent of initial injection, blood [3, 15]: 60% of initial injection; Percent of initial injection, blood [3, 16]: 59% of initial injection; Percent of initial injection, blood ([3]; blood 60 min, Sm-DTPA 0.01 mg/kg i.v. administered alone (Example 29)): 28% of initial injection; Percent of initial injection, blood [3, 17]: 34% of initial injection; Percent of initial injection, blood [3, 18]: 33% of initial injection; Percent of initial injection, blood [3, 19]: 29% of initial injection; Percent of initial injection, urine ([3]; urine 30 min, Sm-DTPA 0.01 mg/kg i.v. administered alone (Example 29)): 24% of initial injection; Percent of initial injection, urine [3, 20]: 22% of initial injection; Percent of initial injection, urine [3, 21]: 26% of initial injection; Percent of initial injection, urine [3, 22]: 20% of initial injection; Percent of initial injection, urine ([3]; urine 180 min, Sm-DTPA 0.01 mg/kg i.v. administered alone (Example 29)): 91% of initial injection; Percent of initial injection, urine [3, 23]: 90% of initial injection; Percent of initial injection, urine [3, 24]: 90% of initial injection; Percent of initial injection, urine [3, 25]: 89% of initial injection |
| O=C([O-])CN(CCN(CC(=O)[O-])CC(=O)[O-])CCN(CC(=O)[O-])CC(=O)[O-].[Eu+3] [Eu-DTPA] | 100 | 97 % of total | 380954 | 3 % of total | 13226 | 0 % of total | 0 | 100 | 0 % of total | 0 | 100 % of total | 22115 | 0 % of total | 0 | 0 % of total | 0 | ≤ 5 | 87% of initial injection | 87% of initial injection | – | Percent of initial injection, blood [3, 14]: 62% of initial injection; Percent of initial injection, blood [3, 16]: 64% of initial injection; Percent of initial injection, blood [3, 17]: 33% of initial injection; Percent of initial injection, blood [3, 19]: 34% of initial injection; Percent of initial injection, urine [3, 20]: 21% of initial injection; Percent of initial injection, urine [3, 22]: 26% of initial injection; Percent of initial injection, urine [3, 23]: 96% of initial injection; Percent of initial injection, urine [3, 25]: 97% of initial injection |
| O=C([O-])CN(CCN(CC(=O)[O-])CC(=O)O)CCN(CC(=O)[O-])CC(=O)O.[Gd+3] [Gd-DTPA, Gd-diethylenetriaminepentaacetic acid] | – | – | – | – | – | – | – | 100 | 0 % of total | – | 100 % of total | – | 0 % of total | – | – | – | ≤ 5 | – | – | 83% of initial injection | Percent of initial injection, blood [3, 15]: 65% of initial injection; Percent of initial injection, blood [3, 18]: 35% of initial injection; Percent of initial injection, urine [3, 21]: 22% of initial injection; Percent of initial injection, urine [3, 24]: 94% of initial injection |
